{"source": "patent US12391913B2", "about": "“Lactiplantibacillus plantarum strain for alleviating hyperuricemia and combination and use thereof” (Northeast Agricultural University, priority 2023, dated 2025)", "format_in_all_cases": "in vivo, Wistar rats", "key": {"[1]": {"tested_on": "potassium oxonate and xanthine-induced hyperuricemic rats", "experiment": "serum uric acid levels in hyperuricemic rats", "settings": "oral gavage once daily for 14 days, vs model group (group B)", "method": "(§1) 48 healthy specific pathogen-free (SPF) male Wistar rats (7 weeks, body weight: (200±20) g) were selected. In order to acclimate to a new environment, the 48 male rats were maintained in the animal house with the temperature of 22° C., the humidity of 10% to 60%, and 12 h/12 h light/dark cycle, and fed with standard diet and water ad libitum for 1 week. After the 1 week of acclimating, all experimental rats were randomly assigned to the following 6 groups with 8 rats per group: a control group (group A), a model group (group B), a Lactiplantibacillus plantarum strain BL-17 treated group (group C), a galacto-oligosaccharide-adenylic acid treated group (group D), a combination treated group (group E), and an allopurinol intervention treated group (positive control) (group F). […]\n(§2) At the late stage of the experiment, fresh feces of the rats were collected and frozen in a −80° C. refrigerator. […] After being collected, the liver tissue was immediately rinsed with pre-cooled normal saline to remove blood, rapidly frozen in liquid nitrogen and then frozen at −80° C., and subsequently homogenized into liver homogenate, and then relevant indicators were determined. […]"}, "[2]": {"tested_on": "XOD", "experiment": "activity of XOD in serum and liver tissues of hyperuricemic rats", "settings": "oral gavage once daily for 14 days, vs model group", "method": "as §1, §2"}, "[3]": {"tested_on": "potassium oxonate and xanthine-induced hyperuricemic rats", "experiment": "serum creatinine levels in hyperuricemic rats", "settings": "oral gavage once daily for 14 days, vs model group", "method": "as §1, §2"}, "[4]": {"tested_on": "potassium oxonate and xanthine-induced hyperuricemic rats", "experiment": "urinary uric acid level in hyperuricemic rats", "settings": "oral gavage once daily for 14 days, vs model group (group B)", "method": "as §1"}}}
{"compound": "Oc1ncnc2[nH]ncc12", "note": "[allopurinol]", "values": [{"measurement": "serum uric acid concentration compared with model group", "setting": "[1]", "result": "decrease"}, {"measurement": "activities of XOD in serum and liver compared with model group", "setting": "[2]", "result": "decrease to varying degrees"}, {"measurement": "serum creatinine levels compared with hyperuricemia model group", "setting": "[3]", "result": "decrease"}, {"measurement": "urinary uric acid levels compared with model group", "setting": "[4]", "result": "decrease to urinary uric acid levels in rats of the control group"}]}
